Reference: patent US20250388604A1, “Compounds and Their Use as PDE4 Activators” (Mironid Limited, priority 2022, published 2025)

Each molecule was assayed on m-IMCD3 cells (assay: Inhibition of PGE2-stimulated in vitro cyst formation in m-IMCD3 cells). Details: Mus musculus, mIMCD3, 144 h, 3 μM; mean cyst area, 100% for (DMSO + PGE2) and 0% for DMSO control; 6 days of culture; read-out: % Cyst area after incubation with 3 μM test compound.
Type: cell-based, mouse
Outline: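 Mean cyst area after 6 days, expressed relative to DMSO+PGE2 (100%) and DMSO alone (0%), from z-stack images. Mouse m-IMCD3 spheroids grew in collagen I/Matrigel gels and received PGE2 (100 nM final) with test compound (0.1% DMSO) starting 18–24 h post-plating, media refreshed at day 2 or 3.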

SMILES | activity at 3 µM [%]
O=C(c1cccc2c1OCC2)N1CCc2nc(N3C4CCC3CNC4)sc2C1 [Example 230, (2-(3,8-diazabicyclo[3.2.1]octan-8-yl)-6,7-dihydrothiazolo[5,4-c]pyridin-5(4H)-yl)(2,3-dihydrobenzofuran-7-yl)methanone] | 22
O=C(c1ccc(Cl)nc1)N1CCc2nc(N3C4CCC3CNC4)sc2C1 [Example 221, (2-(3,8-diazabicyclo[3.2.1]octan-8-yl)-6,7-dihydrothiazolo[5,4-c]pyridin-5(4H)-yl)(6-chloropyridin-3-yl)methanone] | 0
O=C(c1nc2ccccc2o1)N1CCc2nc(N3C4CCC3CNC4)sc2C1 [Example 190, (2-(3,8-diazabicyclo[3.2.1]octan-8-yl)-6,7-dihydrothiazolo[5,4-c]pyridin-5(4H)-yl)(benzo[d]oxazol-2-yl)methanone] | 1
O=C(N[C@H]1CCOc2ccccc21)N1CCc2nc(N3CCNCC3)sc2C1 [Example 296, (S)—N-(chroman-4-yl)-2-(piperazin-1-yl)-6,7-dihydrothiazolo[5,4-c]pyridine-5(4H)-carboxamide] | 33
Cc1ccc(C(=O)N2CCc3nc(N4C5CCC4CNC5)sc3C2)c(C#N)c1 [Example 238, 2-(2-(3,8-diazabicyclo[3.2.1]octan-8-yl)-4,5,6,7-tetrahydrothiazolo[5,4-c]pyridine-5-carbonyl)-5-methylbenzonitrile] | 5
O=C(c1cccc(F)c1)N1CCc2nc(N3C4CCC3CNC4)sc2C1 [Example 235, (2-(3,8-diazabicyclo[3.2.1]octan-8-yl)-6,7-dihydrothiazolo[5,4-c]pyridin-5(4H)-yl)(3-fluorophenyl)methanone] | -3
O=C(c1cccc2c1OCO2)N1CCc2nc(N3C4CCC3CNC4)sc2C1 [Example 234, (2-(3,8-diazabicyclo[3.2.1]octan-8-yl)-6,7-dihydrothiazolo[5,4-c]pyridin-5(4H)-yl)(benzo[d][1,3]dioxol-4-yl)methanone] | 1
O=C(c1ccccc1C(F)F)N1CCc2nc(N3C4CCC3CNC4)sc2C1 [Example 218, (2-(3,8-diazabicyclo[3.2.1]octan-8-yl)-6,7-dihydrothiazolo[5,4-c]pyridin-5(4H)-yl)(2-(difluoromethyl)phenyl)methanone] | 11
O=C(c1ccc(C2CC2)cc1)N1CCc2nc(N3C4CCC3CNC4)sc2C1 [Example 228, (2-(3,8-diazabicyclo[3.2.1]octan-8-yl)-6,7-dihydrothiazolo[5,4-c]pyridin-5(4H)-yl)(4-cyclopropylphenyl)methanone] | -6
O=C(c1ccc(CC(F)(F)F)cc1)N1CCc2nc(N3C4CCC3CNC4)sc2C1 [Example 232, (2-(3,8-diazabicyclo[3.2.1]octan-8-yl)-6,7-dihydrothiazolo[5,4-c]pyridin-5(4H)-yl)(4-(2,2,2-trifluoroethyl)phenyl)methanone] | 5
O=C(c1cccnc1Cl)N1CCc2nc(N3C4CCC3CNC4)sc2C1 [Example 224, (2-(3,8-diazabicyclo[3.2.1]octan-8-yl)-6,7-dihydrothiazolo[5,4-c]pyridin-5(4H)-yl)(2-chloropyridin-3-yl)methanone] | 22
CN1CC2CCC(C1)N2c1nc2c(s1)CN(C(=O)COc1ccc(F)cc1)CC2 [Example 301, 2-(4-fluorophenoxy)-1-(2-(3-methyl-3,8-diazabicyclo[3.2.1]octan-8-yl)-6,7-dihydrothiazolo[5,4-c]pyridin-5(4H)-yl)ethan-1-one] | -6
O=C(c1nccc2ccccc12)N1CCc2nc(N3C4CCC3CNC4)sc2C1 [Example 186, (2-(3,8-diazabicyclo[3.2.1]octan-8-yl)-6,7-dihydrothiazolo[5,4-c]pyridin-5(4H)-yl)(isoquinolin-1-yl)methanone] | 0
O=C(N1CCc2nc(N3C4CCC3CNC4)sc2C1)C(F)(F)c1ccnc(F)c1 [Example 251, 1-(2-(3,8-diazabicyclo[3.2.1]octan-8-yl)-6,7-dihydrothiazolo[5,4-c]pyridin-5(4H)-yl)-2,2-difluoro-2-(2-fluoropyridin-4-yl)ethan-1-one] | -6
CC(C)C(C)(C)C(=O)N1CCc2nc(N3C4CCC3CNC4)sc2C1 [Example 161, 1-(2-(3,8-diazabicyclo[3.2.1]octan-8-yl)-6,7-dihydrothiazolo[5,4-c]pyridin-5(4H)-yl)-2,2,3-trimethylbutan-1-one] | -3
CC(F)(F)c1ccccc1C(=O)N1CCc2nc(N3C4CCC3CNC4)sc2C1 [Example 223, (2-(3,8-diazabicyclo[3.2.1]octan-8-yl)-6,7-dihydrothiazolo[5,4-c]pyridin-5(4H)-yl)(2-(1,1-difluoroethyl)phenyl)methanone] | 14
CC(C)(C)CC(=O)N1CCc2nc(N3CCNCC3)sc2C1 [Example 274, 3,3-dimethyl-1-(2-(piperazin-1-yl)-6,7-dihydrothiazolo[5,4-c]pyridin-5(4H)-yl) butan-1-one] | 14
CCCN1CC2CCC(C1)N2c1nc2c(s1)CN(C(=O)CC1CCCC1)CC2 [Example 292, 2-cyclopentyl-1-(2-(3-propyl-3,8-diazabicyclo[3.2.1]octan-8-yl)-6,7-dihydrothiazolo[5,4-c]pyridin-5(4H)-yl)ethan-1-one] | 0
CC1(C)CN(C(=O)c2ccc(F)nc2)Cc2sc(N3C4CCC3CNC4)nc21 [Example 264, (2-(3,8-diazabicyclo[3.2.1]octan-8-yl)-7,7-dimethyl-6,7-dihydrothiazolo[5,4-c]pyridin-5(4H)-yl)(6-fluoropyridin-3-yl)methanone] | -1
O=C(c1ccc(F)nc1)N1CCc2nc(N3C4CCC3CNC4)sc2C1 [Example 200, (2-(3,8-diazabicyclo[3.2.1]octan-8-yl)-6,7-dihydrothiazolo[5,4-c]pyridin-5(4H)-yl)(6-fluoropyridin-3-yl)methanone] | 4
O=C(c1ccccn1)N1CCc2nc(N3C4CCC3CNC4)sc2C1 [Example 201, (2-(3,8-diazabicyclo[3.2.1]octan-8-yl)-6,7-dihydrothiazolo[5,4-c]pyridin-5(4H)-yl)(pyridin-2-yl)methanone] | 17

Same assay, conditions: Mus musculus, mIMCD3, 144 h, 10 μM; mean cyst area, 100% for (DMSO + PGE2) and 0% for DMSO control; 6 days of culture; read-out: % Cyst area after incubation with 10 μM test compound

SMILES | activity at 10 µM [%]
CC(C)OCC(=O)N1CCc2nc(N3C4CCC3CNC4)sc2C1 [Example 4, 1-(2-(3,8-diazabicyclo[3.2.1]octan-8-yl)-6,7-dihydrothiazolo[5,4-c]pyridin-5(4H)-yl)-2-isopropoxyethan-1-one] | 12
O=S(=O)(CC1CCCC1)N1CCc2nc(N3C4CCC3CNC4)sc2C1 [Example 107, 2-(3,8-diazabicyclo[3.2.1]octan-8-yl)-5-((cyclopentylmethyl)sulfonyl)-4,5,6,7-tetrahydrothiazolo[5,4-c]pyridine] | -16
CN1CC2CCC(C1)N2c1nc2c(s1)CN(C(=O)CC1CCCC1)CC2 [Example 75, 2-cyclopentyl-1-(2-(3-methyl-3,8-diazabicyclo[3.2.1]octan-8-yl)-6,7-dihydrothiazolo[5,4-c]pyridin-5(4H)-yl)ethan-1-one] | -4
O=C(NC1CCCCC1)N1CCc2nc(N3C4CCC3CNC4)sc2C1 [Example 52] | -6
O=C(C1CCCC1)N1CCc2nc(N3C4CCC3CNC4)sc2C1 [Example 22, (2-(3,8-diazabicyclo[3.2.1]octan-8-yl)-6,7-dihydrothiazolo[5,4-c]pyridin-5(4H)-yl)(cyclopentyl)methanone] | -2
O=C(NC1CCC(F)(F)CC1)N1CCc2nc(N3C4CCC3CNC4)sc2C1 [Example 58, 2-(3,8-diazabicyclo[3.2.1]octan-8-yl)-N-(4,4-difluorocyclohexyl)-6,7-dihydrothiazolo[5,4-c]pyridine-5(4H)-carboxamide] | -3
CC1(C)CN(C(=O)CC2CCC(F)(F)CC2)Cc2sc(N3C4CCC3CNC4)nc21 [Example 98, 1-(2-(3,8-diazabicyclo[3.2.1]octan-8-yl)-7,7-dimethyl-6,7-dihydrothiazolo[5,4-c]pyridin-5(4H)-yl)-2-(4,4-difluorocyclohexyl)ethan-1-one] | 3
CN1CC2CCC(C1)N2c1nc2c(s1)CN(C(=O)NC1CCCC1)C2 [Example 82, N-cyclopentyl-2-(3-methyl-3,8-diazabicyclo[3.2.1]octan-8-yl)-4,6-dihydro-5H-pyrrolo[3,4-d]thiazole-5-carboxamide] | 2
O=C(CC1CCC(F)(F)CC1)N1Cc2nc(N3C4CCC3CNC4)sc2C1 [Example 67, 1-(2-(3,8-diazabicyclo[3.2.1]octan-8-yl)-4,6-dihydro-5H-pyrrolo[3,4-d]thiazol-5-yl)-2-(4,4-difluorocyclohexyl)ethan-1-one] | -4
COC(C(=O)N1CCc2nc(N3C4CCC3CNC4)sc2C1)c1ccc(F)cc1 (stereo not drawn) [Example 131, 1-(2-(3,8-diazabicyclo[3.2.1]octan-8-yl)-6,7-dihydrothiazolo[5,4-c]pyridin-5(4H)-yl)-2-(4-fluorophenyl)-2-methoxyethan-1-one] | -9
O=C(N1CCCC1)N1CCc2nc(N3C4CCC3CNC4)sc2C1 [Example 60, (2-(3,8-diazabicyclo[3.2.1]octan-8-yl)-6,7-dihydrothiazolo[5,4-c]pyridin-5(4H)-yl)(pyrrolidin-1-yl)methanone] | 2
O=C(CC1CCC2(CC1)COC2)N1CCc2nc(N3C4CCC3CNC4)sc2C1 [Example 155, 1-(2-(3,8-diazabicyclo[3.2.1]octan-8-yl)-6,7-dihydrothiazolo[5,4-c]pyridin-5(4H)-yl)-2-(2-oxaspiro[3.5]nonan-7-yl)ethan-1-one] | -3
